Source: PMC6112376, “Comprehensive Analyses and Prioritization of Tox21 10K Chemicals Affecting Mitochondrial Function by in-Depth Mechanistic Studies” (Environmental Health Perspectives, 2018)
Structures can show the parent of a compound that is named as a salt. Where two headings read alike, the source gives them in different places.

Columns and labels:
[1] = system: HepG2 cells; conditions: cited from earlier work
[2] = system: rat primary hepatocytes; assay: MMP assay in rat primary hepatocytes; conditions: for IC50: Rattus norvegicus, Hepatocyte
[3] = system: HepG2 cells; assay: cells; conditions: Homo sapiens; for Emax: HepG2, read-out: MMP assays efficacy (%) HepG2
[4] = system: rat primary hepatocytes
[5] = read-out: MMP assays IC50 (µM) qHTS-HepG2
[6] = read-out: MMP assays IC50 (µM) Rat Hepatocytes
[7] = HepG2, read-out: MMP assays IC50 (µM) HepG2
[8] = read-out: MMP assays IC50 (µM), qHTS-HepG2

SMILES | MMP assays efficacy (%) qHTS-HepG2 [1] | IC50 [1, 5] | IC50 [2, 6] | IC50 [3, 7] | Emax [3] | MMP assays efficacy (%) Rat Hepatocytes [4] | MMP assays IC50 (µM) Rat Hepatocytes [2] | IC50 [1, 8] | IC50 ([2]; 1 h, read-out: IC50 in rat primary hepatocytes (MMP, tier-one retest)) | IC50 ([3]; HepG2, read-out: IC50 in HepG2 cells (MMP, tier-one retest))
Oc1cc(Cl)cc(Cl)c1Cl [2,3,5-Trichlorophenol] | -99±7% | 5.8 ± 1.05 µM | 27.7 ± 10.4 µM | 6.31 µM | 114% | -77±25% | – | – | – | –
O=[N+]([O-])c1ccc(Nc2ccccc2)cc1 [Compound 4-Nitro-N-phenylaniline] | -99±15% | 7.43 ± 6.54 µM | 23.9 ± 7.05 µM | 8.91 µM | 94% | -93±7% | – | – | – | –
CC1(C)[C@H](C(=O)O[C@H](C#N)c2cccc(Oc3ccccc3)c2)[C@@H]1C=C(Br)Br [Deltamethrin] | -75±5% | 45.9 ± 17.9 µM | 39.8 ± 14.2 µM | 50.1 µM | 93% | -65±42% | – | – | – | –
Nc1ccc(N)cc1 [1,4-Benzenediamine] | -85±6% | 3.28 ± 0.42 µM | – | 2.18 µM | 71% | inactive | inactive | – | – | –
Nc1ccc(Cc2ccc(N)c(Cl)c2)cc1Cl [4,4'-Methylenebis(2-chloroaniline)] | -98±24% | 49.1 ± 17 µM | 56.2 µM | 39.8 µM | 87% | -52±15% | – | – | – | –
COC(=O)[C@]12CCC(C)(C)C[C@H]1[C@H]1C(=O)C=C3[C@@]4(C)C=C(C#N)C(=O)C(C)(C)[C@@H]4CC[C@@]3(C)[C@]1(C)CC2 [Bardoxolone methyl] | -114±5% | 5.11 ± 1.27 µM | 17.4 ± 2 µM | 17.3 µM | 122% | -90±57% | – | – | – | –
Cc1cc(C(C)(C)c2ccc(O)c(C)c2)ccc1O [3,3'-Dimethylbisphenol A] | -118±22% | 8.88 ± 3.37 µM | 34.4 ± 4.73 µM | 11.2 µM | 110% | -56±26% | – | – | – | –
S=C=Nc1ccccc1 [Phenyl isothiocyanate] | -103±16% | – | – | 35.5 µM | 134% | inactive | inactive | 43 ± 14.8 µM | – | –
Nc1cccc2c(N)cccc12 [1,5-Naphthalenediamine] | -76±19% | 17 ± 19.6 µM | – | 3.16 µM | 101% | inactive | inactive | – | – | –
CCCCOC(=O)c1ccc(O)cc1 [Butylparaben] | -109±15% | 19 µM | – | 35.5 µM | 124% | inactive | inactive | – | – | –
O=C1c2ccccc2C(=O)c2c1ccc(O)c2O [Alizarin] | -101±8% | 11 ± 1.41 µM | 11.9 ± 7.79 µM | 13.8 µM | 94% | -80±8% | – | – | – | –
CC(C)(C)c1cc([N+](=O)[O-])cc(C(C)(C)C)c1O [2,6-di-tert-butyl-4-nitrophenol] | -96±13% | 0.17 ± 0.05 µM | – | – | 108% | -109±11% | – | – | 0.29 µM | 0.11 µM
Oc1ccc(Cl)c(Cl)c1Cl [2,3,4-Trichlorophenol] | -101±8% | 5.23 ± 1.52 µM | 41.8 ± 14.4 µM | 7.94 µM | 101% | -59±36% | – | – | – | –
CCC(C)c1ccc(O)cc1 (centres unmarked) [4-(Butan-2-yl)phenol] | -101±7% | 32 ± 3.64 µM | – | 35.5 µM | 77% | inactive | inactive | – | – | –
C[C@H]1CCCC(=O)CCC/C=C/c2cc(O)cc(O)c2C(=O)O1 [Zearalenone] | -110±22% | – | 22 ± 1.79 µM | 5.84 µM | 115% | -68±24% | – | 4.67 ± 1.77 µM | – | –
OC1(c2ccc(Cl)c(C(F)(F)F)c2)CCN(CCCC(c2ccc(F)cc2)c2ccc(F)cc2)CC1 [Penfluridol] | -88±15% | – | 23.2 ± 6.57 µM | 27.5 µM | 68% | -64±25% | – | 33.5 µM | – | –
CO[C@H]1[C@@H](O)C[C@H](O[C@H]2[C@@H](O)C[C@H](O[C@H]3[C@@H](O)C[C@H](O[C@H]4CC[C@@]5(C)[C@H](CC[C@@H]6[C@@H]5C[C@@H](O)[C@]5(C)[C@@H](C7=CC(=O)OC7)CC[C@]65O)C4)O[C@@H]3C)O[C@@H]2C)O[C@@H]1C [Methyldigoxin] | -71±5% | – | – | 0.24 µM | 99% | inactive | inactive | 0.73 ± 0.09 µM | – | –

SMILES | MMP assays efficacy (%) qHTS-HepG2 [1] | IC50 [1, 5] | IC50 [2, 6] | IC50 [3, 7] | Emax [3] | MMP assays efficacy (%) Rat Hepatocytes [4] | MMP assays IC50 (µM) Rat Hepatocytes [2] | IC50 [1, 8] | IC50 ([2]; 1 h, read-out: IC50 in rat primary hepatocytes (MMP, tier-one retest)) | IC50 ([3]; HepG2, read-out: IC50 in HepG2 cells (MMP, tier-one retest))
CC(NCCC(c1ccccc1)c1ccccc1)c1ccccc1 (centres unmarked) [Fendiline hydrochloride] | -79±12% | 10.3 ± 1.55 µM | – | 9.75 µM | 87% | inactive | inactive | – | – | –
O=Nc1ccc(O)cc1 [Compound 4-Nitrosophenol] | -87±9% | 4.71 ± 2.31 µM | – | 15.8 µM | 61% | inactive | inactive | – | – | –
O=C1c2ccccc2C(=O)c2cc(O)ccc21 [Compound 2-Hydroxyanthraquinone] | -124±4% | 3.31 ± 1.38 µM | 17.3 ± 6.83 µM | 7.08 µM | 120% | -68±21% | – | – | – | –
ClC1=C(Cl)C2(Cl)C3C4CC(C5OC45)C3C1(Cl)C2(Cl)Cl (centres unmarked) [Endrin] | -75±20% | 23.5 ± 7.96 µM | – | 21.8 µM | 55% | inactive | inactive | – | – | –
Oc1cc(Cl)ccc1Oc1ccc(Cl)cc1Cl [Triclosan] | -101±5% | – | 15.2 ± 13.5 µM | 6.15 µM | 123% | -58±19% | – | 1.5 ± 0.88 µM | – | –
Oc1cc(Cl)c(Cl)c(Cl)c1 [3,4,5-Trichlorophenol] | – | 3.8 ± 1.74 µM | 33.8 ± 17.2 µM | 5.01 µM | 96% | -100±4% | – | – | – | –
CC(C)C(C(=O)OC(C#N)c1cccc(Oc2ccccc2)c1)c1ccc(Cl)cc1 (centres unmarked) [Fenvalerate] | -69±10% | – | – | 35.5 µM | 60% | inactive | inactive | 32.1 µM | – | –
O=S(=O)(c1ccc(Cl)cc1)c1cc(Cl)c(Cl)cc1Cl [Tetradifon] | -98±2% | – | 12.1 ± 6.57 µM | 17.8 µM | 96% | -77±25% | – | 15.3 ± 7.43 µM | – | –
C[C@@]1(c2ccc(Oc3ccccc3)cc2)OC(=O)N(Nc2ccccc2)C1=O (racemic) [Famoxadone] | -104±6% | 4.19 ± 1.07 µM | 8.38 ± 6.71 µM | 4.47 µM | 107% | -158±101% | – | – | – | –
CCC(C)c1ccccc1O (centres unmarked) [2-(Butan-2-yl)phenol] | -82±8% | 49.5 ± 9.45 µM | – | 25.1 µM | 32% | inactive | inactive | – | – | –
O=C1CN(/N=C/c2ccc(-c3ccc([N+](=O)[O-])cc3)o2)C(O)=N1 [Dantrolene sodium] | -85±8% | 4.35 ± 1.73 µM | 15.5 ± 1.78 µM | 3.46 µM | 73% | -108±32% | – | – | – | –
ClC1=C(Cl)C2(Cl)C(CBr)CC1(Cl)C2(Cl)Cl (centres unmarked) [Bromociclen] | -87±13% | 33.2 ± 3.47 µM | – | 15.5 µM | 47% | inactive | inactive | – | – | –
Nc1ccc(/N=N/c2ccc(N)cc2)cc1 [4,4'-Diaminoazobenzene] | -86±5% | 10.5 ± 3.59 µM | 26.6 ± 12.5 µM | 5.62 µM | 87% | -50±40% | – | – | – | –
C[C@]12O[C@H](C[C@]1(O)CO)n1c3ccccc3c3c4c(c5c6ccccc6n2c5c31)CNC4=O [lestaurtinib] | -84±9% | – | 12.8 ± 2.67 µM | 5.62 µM | 100% | -92±26% | – | 4.8 ± 0.97 µM | – | –
O=C(Nc1ccccc1)c1ccccc1O [Salicylanilide] | -125±11% | – | 29.1 ± 12.2 µM | 3.98 µM | 101% | -91±5% | – | 3.71 ± 1.27 µM | – | –
CC(=O)N1CCN(c2ccc(OCC3COC(Cn4ccnc4)(c4ccc(Cl)cc4Cl)O3)cc2)CC1 (centres unmarked) [Ketoconazole] | -56±14% | – | – | 5.48 µM | 55% | inactive | inactive | 10.8 ± 3.25 µM | – | –
CC(=O)C(Cl)(Cl)Cl [1,1,1-Trichloropropanone] | -93±13% | 1.22 ± 0.56 µM | 23.7 ± 29.6 µM | 3.16 µM | 123% | -42±17% | – | – | – | –
